Test results from ChEMBL document CHEMBL4033685, “C21-steroidal pregnane sapogenins and their derivatives as anti-inflammatory agents” (Bioorg Med Chem, 2017).
Activity calls are given as the source filed them. The calls are words filed in the database; no cut-off is given here.

What was measured:
Toll-like receptor 4 = Toll-like receptor 4 (Homo sapiens, UniProt O00206); assay: Antagonist activity at TLR4 (unknown origin) expressed in human AD293 cells assessed as inhibition of LPS/ATP-stimulated TLR4/NF-kB signaling pathway at 10 uM after 16 hrs by luciferase reporter gene assay; type: cell-based
Toll-like receptor 4, sequence (O00206 whole entry): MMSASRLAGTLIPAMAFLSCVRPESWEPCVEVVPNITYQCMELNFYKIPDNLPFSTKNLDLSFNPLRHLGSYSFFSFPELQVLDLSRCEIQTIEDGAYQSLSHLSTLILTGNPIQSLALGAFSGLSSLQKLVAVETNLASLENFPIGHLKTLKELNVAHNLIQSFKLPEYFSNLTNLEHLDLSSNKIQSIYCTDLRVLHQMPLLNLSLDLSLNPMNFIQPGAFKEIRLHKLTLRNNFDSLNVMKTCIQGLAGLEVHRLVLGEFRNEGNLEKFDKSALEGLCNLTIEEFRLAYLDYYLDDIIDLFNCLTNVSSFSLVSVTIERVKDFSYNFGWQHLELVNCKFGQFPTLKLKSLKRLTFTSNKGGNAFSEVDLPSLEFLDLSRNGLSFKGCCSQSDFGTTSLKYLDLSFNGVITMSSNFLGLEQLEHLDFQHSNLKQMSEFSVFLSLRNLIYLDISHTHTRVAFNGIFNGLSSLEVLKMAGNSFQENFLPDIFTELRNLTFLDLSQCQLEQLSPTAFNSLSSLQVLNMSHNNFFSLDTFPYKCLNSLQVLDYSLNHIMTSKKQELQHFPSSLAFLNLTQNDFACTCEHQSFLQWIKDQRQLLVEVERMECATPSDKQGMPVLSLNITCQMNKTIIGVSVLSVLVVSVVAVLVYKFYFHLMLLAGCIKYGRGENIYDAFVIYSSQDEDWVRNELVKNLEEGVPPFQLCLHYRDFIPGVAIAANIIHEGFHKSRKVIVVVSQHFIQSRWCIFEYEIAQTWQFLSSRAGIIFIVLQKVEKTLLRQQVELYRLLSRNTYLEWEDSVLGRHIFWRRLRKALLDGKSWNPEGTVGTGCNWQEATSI

AD293 = assay: Cytotoxicity against human AD293 cells assessed as reduction in cell viability at 10 uM after 24 hrs by methylene blue dye based spectrophotometric method; details: ad293, 24 h

Structure (SMILES) | inhibition (Toll-like receptor 4) | Activity (AD293)
CC(=O)[C@]1(O)CC[C@@]2(O)[C@]1(C)[C@H](OC(=O)/C=C/c1ccccc1)C[C@@H]1[C@@]3(C)CC[C@H](OC(=O)/C=C/c4ccc([N+](=O)[O-])cc4)CC3=CC[C@]12O | inactive | Toxic
C[C@H]1O[C@@H]2C[C@@H]3[C@@]4(C)CC[C@H](OC(=O)/C=C/c5ccc([N+](=O)[O-])cc5)CC4=CC[C@@]3(O)[C@@]3(O)CC[C@]1(OC(=O)/C=C/c1ccccc1)[C@@]23C | inactive | Toxic
CC(=O)[C@]1(O)CC[C@@]2(O)[C@]1(C)[C@H](OC(=O)/C=C(\C)C(C)C)C[C@@H]1[C@@]3(C)CCC(OC(=O)CCl)CC3=CC[C@]12O (some centres not stated) | inactive | Toxic
COc1cc(/C=C/C(=O)O[C@H]2CC[C@@]3(C)C(=CC[C@]4(O)[C@@H]3C[C@@H](OC(=O)/C=C/c3ccccc3)[C@@]3(C)[C@]4(O)CC[C@@]3(O)C(C)=O)C2)cc(OC)c1OC | inactive | Toxic
COc1cc(/C=C/C(=O)O[C@H]2CC[C@@]3(C)C(=CC[C@]4(O)[C@@H]3C[C@H]3O[C@H](C)[C@]5(OC(=O)/C=C/c6ccccc6)CC[C@@]4(O)[C@]35C)C2)cc(OC)c1OC | inactive | Toxic
CC(=O)[C@]1(O)CC[C@@]2(O)[C@]1(C)[C@H](OC(=O)/C=C(\C)C(C)C)C[C@@H]1[C@@]3(C)CC[C@H](O)CC3=CC[C@]12O [CAUDATIN] | inactive | Toxic
CC(=O)[C@]1(O)CC[C@@]2(O)[C@]1(C)[C@H](OC(=O)c1ccc(O)cc1)C[C@@H]1[C@@]3(C)CC[C@H](O)CC3=CC[C@]12O | inactive | Toxic
CC(=O)[C@]1(O)CC[C@@]2(O)[C@]1(C)[C@H](OC(=O)/C=C/c1ccccc1)C[C@@H]1[C@@]3(C)CC[C@H](O)CC3=CC[C@]12O | inactive | Toxic
C[C@H]1O[C@@H]2C[C@@H]3[C@@]4(C)CC[C@H](O)CC4=CC[C@@]3(O)[C@@]3(O)CC[C@]1(OC(=O)/C=C/c1ccccc1)[C@@]23C | inactive | Toxic
COc1ccc(/C=C/C(=O)O[C@H]2CC[C@@]3(C)C(=CC[C@]4(O)[C@@H]3C[C@H]3O[C@H](C)[C@]5(OC(=O)/C=C/c6ccccc6)CC[C@@]4(O)[C@]35C)C2)cc1 | inactive | Toxic
CC(=O)[C@]1(OS(C)(=O)=O)CC[C@@]2(O)[C@]1(C)[C@H](OC(=O)c1ccc(O)cc1)C[C@@H]1[C@@]3(C)CC[C@H](OS(C)(=O)=O)CC3=CC[C@]12O | inactive | Toxic
CC(=O)[C@]1(O)CC[C@]23OC(C)(C)O[C@]24CC=C2C[C@@H](O)CC[C@]2(C)[C@H]4C[C@@H](OC(=O)c2ccc(O)cc2)[C@@]31C | inactive | Toxic
COc1ccc(/C=C/C(=O)O[C@H]2CC[C@@]3(C)C(=CC[C@]4(O)[C@@H]3C[C@@H](OC(=O)/C=C/c3ccccc3)[C@@]3(C)[C@]4(O)CC[C@@]3(O)C(C)=O)C2)cc1 | inactive | Toxic
CC(=O)[C@]1(OC(=O)/C=C/c2ccc([N+](=O)[O-])cc2)CC[C@@]2(O)[C@]1(C)[C@H](OC(=O)c1ccc(O)cc1)C[C@@H]1[C@@]3(C)CC[C@H](OC(=O)/C=C/c4ccc([N+](=O)[O-])cc4)CC3=CC[C@]12O | inactive | Toxic
CC(=O)[C@]1(O)CC[C@@]2(O)[C@]1(C)[C@H](OC(=O)c1ccc(O)cc1)C[C@@H]1[C@@]3(C)CC[C@H](Br)CC3=CC[C@]12O | inactive | Toxic
COc1cc(/C=C/C(=O)O[C@H]2CC[C@@]3(C)C(=CC[C@]4(O)[C@@H]3C[C@@H](OC(=O)c3ccc(O)cc3)[C@@]3(C)[C@]4(O)CC[C@@]3(OC(=O)/C=C/c3cc(OC)c(OC)c(OC)c3)C(C)=O)C2)cc(OC)c1OC | inactive | Toxic
